According to patent US8821898B2, “Active compound combinations having insecticidal and acaricidal properties” (Bayer CropScience AG, priority 2003, dated 2014):

What was measured:
Format in all cases: in vivo
Aphis gossypii = Aphis gossypii test (dipped cotton leaves)
Protocol: (§1) To produce a suitable preparation of active compound, 1 part by weight of active compound is mixed with the stated amounts of solvent and emulsifier, and the concentrate is diluted with emulsifier-containing water to the desired concentration.
Cotton leaves (Gossypium hirsutum) which are heavily infested by the cotton aphid (Aphis gossypii) are treated by being dipped into the preparation of active compound of the desired concentration.
After the desired period of time; the kill in % is determined. 100% means that all aphids have been killed; 0% means that none of the aphids have been killed. The determined kill rates are entered into Colby's formula (see page 41).

[1] = test system: Phaedon cochleariae larvae; assay: Phaedon cochleariae larvae test (dipped cabbage leaves)
Protocol: as §1
Cabbage leaves (Brassica oleracea) are treated by being dipped into the preparation of active compound of the desired concentration and are populated with larvae of the mustard beetle (Phaedon cochleariae) while the leaves are still moist.
After the desired period of time, the kill in % is determined. 100% means that all beetle larvae have been killed; 0% means that none of the beetle larvae have been killed. The determined kill rates are entered into Colby's formula (see page 41).

Myzus persicae = Myzus persicae test (dipped cabbage leaves); conditions: 4 ppm
Protocol: as §1
Cabbage leaves (Brassica oleracea) which are heavily infested by the green peach aphid (Myzus persicae) are treated by being dipped into the preparation of active compound of the desired concentration.
After the desired period of time, the kill in % is determined. 100% means that all aphids have been killed; 0% means that none of the aphids have been killed. The determined kill rates are entered into Colby's formula (see on page 41).

Spodoptera frugiperda = Spodoptera frugiperda test (dipped cabbage leaves)
Protocol: as §1
Cabbage leaves (Brassica oleracea) are treated by being dipped into the preparation of active compound of the desired concentration and are populated with caterpillars of the army worm (Spodoptera frugiperda) while the leaves are still moist.
(§2) After the desired period of time, the kill in % is determined. 100% means that all caterpillars have been killed; 0% means that none of the caterpillars have been killed. The determined kill rates are entered into Colby's formula (see page 41).

[2] = test system: Plutella xylostella, resistant strain; assay: Plutella xylostella test (resistant strain)
Protocol: as §1
Cabbage leaves (Brassica oleracea) are treated by being dipped into the preparation of active compound of the desired concentration and are populated with caterpillars of the diamondback moth (Plutella xylostella, resistant strain) while the leaves are still moist.
as §2

CC(C)N1C(=O)N(c2ccccc2)CS/C1=N\C(C)(C)C [(2-2) buprofezin, buprofezin, reference compound]
Kill rate in % after 7d, found (Aphis gossypii; 20 ppm): 0%
Kill rate in % after 3d, found ([1]; 100 ppm): 20%

Cc1cc(Cl)cc(C(=O)NC(C)C)c1NC(=O)c1cc(C(F)(F)F)nn1-c1ncccc1Cl [II-1-9]
Kill rate in % after 6d, found (Myzus persicae; Table B1): 30%
Kill rate in % after 6d, found (Myzus persicae; Table B2): 0%
Kill rate in % after 7d, found (Aphis gossypii; 4 ppm): 20%
Kill rate in % after 6d, found (Aphis gossypii; 20 ppm): 55%
Kill rate in % after 3d, found ([1]; 0.16 ppm): 5%
Kill rate in % after 6d, found ([1]; 0.16 ppm): 0%
Kill rate in % after 3d, found (Spodoptera frugiperda; 0.16 ppm): 45%
Kill rate in % after 6d, found ([2]; 0.0064 ppm): 0%

N#CCNC(=O)c1cnccc1C(F)(F)F [(2-6) flonicamid, flonicamid, reference compound]
Kill rate in % after 6d, found (Myzus persicae; Table B2): 40%
Kill rate in % after 6d, found (Aphis gossypii; 20 ppm): 40%
Kill rate in % after 3d, found (Spodoptera frugiperda; 100 ppm): 5%

CCOC(=O)OC1=C(c2cc(C)ccc2C)C(=O)NC12CCC(OC)CC2 (stereo not shown) [I-a-4]
Kill rate in % after 6d, found (Myzus persicae; Table B1): 80%
Kill rate in % after 6d, found ([1]; 4 ppm): 15%
Kill rate in % after 6d, found ([2]; 0.16 ppm): 0%
